Assay results: patent publication US10131652B2, “Pyrimidinyloxy benzene derivatives as herbicides” (E. I. DU PONT DE NEMOURS AND COMPANY, priority 2014, dated 2018)
Like-named read-outs stand apart in the source and are kept apart here.

Tests used:
Experiment in all cases: Test D pre-/postemergence plant response
Assay type in all cases: in vivo
[1] = system: morningglory (Ipomoea coccinea); conditions: Ipomoea; for pest or weed control at 31 g/ha: 31 g ai/ha; for pest or weed control at 62 g/ha: 62 g ai/ha
Method in brief: (§1)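 Sown seed (loam/sand soil) treated preemergence; emerged plants, 1- to 4-leaf stage and 2 to 18 cm, treated postemergence in peat/vermiculite medium. Greenhouse incubation 13–15 d. Endpoint: visual 0–100 rating versus untreated.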

[2] = system: oilseed rape (Brassica napus); conditions: Brassica napus; for plant injury at 31 g/ha: 31 g ai/ha; for plant injury at 62 g/ha: 62 g ai/ha
Method in brief: as §1

[3] = system: ragweed (common ragweed, Ambrosia elatior); conditions: Ambrosia artemisiifolia; for pest or weed control at 31 g/ha: 31 g ai/ha; for pest or weed control at 62 g/ha: 62 g ai/ha; for pest or weed control at 125 g/ha: 125 g ai/ha
Method in brief: as §1

[4] = system: waterhemp (common waterhemp, Amaranthus rudis); conditions: Amaranthus tuberculatus; for pest or weed control at 31 g/ha: 31 g ai/ha; for pest or weed control at 62 g/ha: 62 g ai/ha; for pest or weed control at 125 g/ha: 125 g ai/ha
Method in brief: as §1

[5] = system: pigweed (Amaranthus retroflexus); conditions: Amaranthus retroflexus; for pest or weed control at 31 g/ha: 31 g ai/ha; for pest or weed control at 62 g/ha: 62 g ai/ha; for pest or weed control at 125 g/ha: 125 g ai/ha
Method in brief: as §1

soybean (Glycine max) = conditions: Glycine max; for plant injury at 31 g/ha: 31 g ai/ha; for plant injury at 62 g/ha: 62 g ai/ha
Method in brief: as §1

corn (Zea mays) = conditions: Zea mays, post-emergence, Postemergence
Method in brief: as §1

[6] = pre-emergence, Preemergence, scale 0 to 100 (0 no effect, 100 complete control), read-out: Plant response rating, Morningglory
[7] = pre-emergence, Preemergence, scale 0 to 100 (0 no effect, 100 complete control), read-out: Plant response rating, Oilseed Rape
[8] = post-emergence, Postemergence, scale 0 to 100, 0 no effect, 100 complete control, read-out: Plant response rating, Ragweed
[9] = pre-emergence, Preemergence, scale 0 to 100 (0 no effect, 100 complete control), read-out: Plant response rating, Ragweed
[10] = post-emergence, Postemergence, scale 0 to 100, 0 no effect, 100 complete control, read-out: Plant response rating, Waterhemp
[11] = pre-emergence, Preemergence, scale 0 to 100 (0 no effect, 100 complete control), read-out: Plant response rating, Waterhemp
[12] = post-emergence, Postemergence, scale 0 to 100, 0 no effect, 100 complete control, read-out: Plant response rating, Pigweed
[13] = pre-emergence, Preemergence, scale 0 to 100 (0 no effect, 100 complete control), read-out: Plant response rating, Pigweed
[14] = pre-emergence, Preemergence, scale 0 to 100 (0 no effect, 100 complete control), read-out: Plant response rating, Soybean

Fc1cccc(Oc2ncc(Cl)cn2)c1-c1cc(C(F)F)no1 [Compound 144, 5-chloro-2-[2-[3-(difluoromethyl)-5-isoxazolyl]-3-fluorophenoxy]pyrimidine]
95%: plant injury at 62 g/ha ([2]; post-emergence, Postemergence, scale 0 to 100, 0 no effect, 100 complete control, read-out: Plant response rating, Oilseed Rape) | plant injury at 62 g/ha (soybean (Glycine max); post-emergence, Postemergence, scale 0 to 100, 0 no effect, 100 complete control, read-out: Plant response rating, Soybean) | plant injury at 125 g/ha (soybean (Glycine max); pre-emergence, Preemergence, 125 g ai/ha, read-out: Plant response rating (scale 0 to 100), Soybean)
5%: plant injury at 16 g/ha (corn (Zea mays); 16 g ai/ha, scale 0 to 100 (0 no effect, 100 complete control), read-out: Corn plant response rating) | plant injury at 31 g/ha (corn (Zea mays); 31 g ai/ha, scale 0 to 100 (0 no effect, 100 complete control), read-out: Corn plant response rating)
90%: plant injury at 62 g/ha (soybean (Glycine max); [14])
10%: Corn plant response rating (crop injury, 0 = no effect, 100 = complete kill) at 62 g/ha (corn (Zea mays); 62 g ai/ha, scale 0 to 100, 0 no effect, 100 complete control)
80%: plant injury at 31 g/ha ([2]; post-emergence, Postemergence, scale 0 to 100 (0 no effect, 100 complete control), read-out: Oilseed Rape plant response rating) | plant injury at 31 g/ha (soybean (Glycine max); post-emergence, Postemergence, scale 0 to 100 (0 no effect, 100 complete control), read-out: Soybean plant response rating)
75%: pest or weed control at 31 g/ha [1, 6] | pest or weed control at 125 g/ha [3, 8] | pest or weed control at 16 g/ha ([3]; pre-emergence, Preemergence, 16 g ai/ha, scale 0 to 100 (0 no effect, 100 complete control), read-out: Plant response rating, Ragweed) | plant injury at 31 g/ha (soybean (Glycine max); [14])
98%: plant injury at 16 g/ha ([2]; pre-emergence, Preemergence, 16 g ai/ha, scale 0 to 100 (0 no effect, 100 complete control), read-out: Plant response rating, Oilseed Rape) | pest or weed control at 31 g/ha ([5]; post-emergence, Postemergence, scale 0 to 100 (0 no effect, 100 complete control), read-out: Pigweed plant response rating)
20%: pest or weed control at 16 g/ha ([1]; pre-emergence, Preemergence, 16 g ai/ha, scale 0 to 100 (0 no effect, 100 complete control), read-out: Plant response rating, Morningglory)
35%: plant injury at 16 g/ha (soybean (Glycine max); pre-emergence, Preemergence, 16 g ai/ha, scale 0 to 100 (0 no effect, 100 complete control), read-out: Plant response rating, Soybean)
100%: pest or weed control at 125 g/ha ([1]; pre-emergence, Preemergence, 125 g ai/ha, read-out: Plant response rating (scale 0 to 100), Morningglory) | pest or weed control at 62 g/ha [1, 6] | plant injury at 125 g/ha ([2]; pre-emergence, Preemergence, 125 g ai/ha, read-out: Plant response rating (scale 0 to 100), Oilseed Rape) | plant injury at 31 g/ha [2, 7] | plant injury at 62 g/ha [2, 7] | pest or weed control at 125 g/ha ([3]; pre-emergence, Preemergence, read-out: Plant response rating (scale 0 to 100), Ragweed) | pest or weed control at 62 g/ha [3, 9] | pest or weed control at 62 g/ha [4, 10] | pest or weed control at 125 g/ha [4, 10] | pest or weed control at 125 g/ha ([4]; pre-emergence, Preemergence, read-out: Plant response rating (scale 0 to 100), Waterhemp) | pest or weed control at 16 g/ha ([4]; pre-emergence, Preemergence, 16 g ai/ha, scale 0 to 100 (0 no effect, 100 complete control), read-out: Plant response rating, Waterhemp) | pest or weed control at 31 g/ha [4, 11] | pest or weed control at 62 g/ha [4, 11] | pest or weed control at 62 g/ha [5, 12] | pest or weed control at 125 g/ha [5, 12] | pest or weed control at 125 g/ha ([5]; pre-emergence, Preemergence, read-out: Plant response rating (scale 0 to 100), Pigweed) | pest or weed control at 16 g/ha ([5]; pre-emergence, Preemergence, 16 g ai/ha, scale 0 to 100 (0 no effect, 100 complete control), read-out: Plant response rating, Pigweed) | pest or weed control at 31 g/ha [5, 13] | pest or weed control at 62 g/ha [5, 13]
70%: pest or weed control at 62 g/ha [3, 8]
60%: pest or weed control at 31 g/ha ([3]; post-emergence, Postemergence, scale 0 to 100 (0 no effect, 100 complete control), read-out: Ragweed plant response rating)
85%: pest or weed control at 31 g/ha ([1]; post-emergence, Postemergence, scale 0 to 100 (0 no effect, 100 complete control), read-out: Morningglory plant response rating) | pest or weed control at 62 g/ha ([1]; post-emergence, Postemergence, scale 0 to 100, 0 no effect, 100 complete control, read-out: Plant response rating, Morningglory) | pest or weed control at 31 g/ha [3, 9] | pest or weed control at 31 g/ha ([4]; post-emergence, Postemergence, scale 0 to 100 (0 no effect, 100 complete control), read-out: Waterhemp plant response rating)
